Data published in US20110244589A1, “IN-VIVO PLATELET FUNCTION TEST BY ONLINE BLEEDING VOLUME MEASUREMENT” (priority 2009, published 2011).

Key:
platelet function [1] = conditions: background statement on the bleeding time test; cited from earlier work
platelet function [2] = assay: bleeding volume test (in-vivo, blotter paper blotch area); design: species or system patient; conditions: after taking an aspirin, versus before
Text: Bleeding volume is the volume of blood lost during a bleeding time test. Bleeding time is a total length of time between the moment a standardized tiny superficial incision is made in the skin of a patient and the moment the bleeding stops. […] The blotter paper 14 absorbs the blood 16 oozing out of the incision 18 until the patient 10 stops bleeding. One or more blotter papers 14 may be necessary to absorb all of the blood 16.
The in-vivo bleeding volume test results of the patient 10 is indicative of a patient's excessive bleeding tendencies, platelet function and platelet number.
Referring now to FIG. 1, a medical professional conducts the following procedure on the patient 10 being treated. The conditions for consistent blood flow and clotting may be set up. For example, the incision area may be wiped with alcohol which is allowed to completely dry. The patient may either sit in a chair with the forearm in a comfortable stable position or reclining with the forearm at heart level. A blood pressure (e.g., sphygmomanometer) cuff 26 may be placed on an upper arm 22 of the patient 10. By way of example and not limitation, the blood pressure cuff 26 may be inflated to about 40 mm Hg to regulate a constant venous blood pressure in the forearm 24 of the patient 10. […] A round disc blotter paper 14 typically used for determining bleeding time may be placed at the edge of the incision 18. […]

platelet function [3] = assay: bleeding time test (in-vivo); design: species or system patient; conditions: after taking an aspirin, versus before
Text: The bleeding time of a patient, which is the length of time blood continues to flow after the skin of a patient has been punctured or cut, has been used to identify patients having abnormal bleeding tendencies or platelet dysfunction or low number of platelets. The bleeding time test is an in-vivo test which involves making a standardized incision on the skin then applying a round disc of standardized blotter paper to the enlarging blood droplet adjacent to the incision for precisely thirty (30) seconds, then rotating the blotter paper and applying a fresh edge of the disc to the bleeding incision, and repeating this process until bleeding has stopped. The sequential blotches of blood on the blotter paper should not intersect. The total number of dried blotches of blood on the blotter paper divided by the number two (2) gives the duration of bleeding in minutes. […] The conditions for consistent blood flow and clotting may be set up. For example, the incision area may be wiped with alcohol which is allowed to completely dry. […] To calculate the total bleeding time, the number of blotches 28 may be counted and divided by two to arrive at the bleeding time to the nearest thirty (30) second interval. Alternatively, the bleeding time may be calculated with a stopwatch.

In the case of `CC(=O)Oc1ccccc1C(=O)O` [aspirin], the “difference in mean bleeding time of persons who take aspirin and those that take no medication” value (platelet function [1]) is listed as ≤ 2 standard deviations, the increases bleeding volume (platelet function [2]) is listed as 400% and the “increase the bleeding time” value (platelet function [3]) is listed as 72%.
